Assay results: patent US10150982B2, “Microbial ecology shift assay” (Second Genome, Inc., priority 2013, dated 2018)

Assays:
[1] = tested on: microbiota of human donor fecal samples; experiment: MESA microplate experiments (16S rRNA V4 sequencing, PCoA/Unifrac); assay type: cell-based; settings: 24 hours anaerobic
Method: A fecal sample was obtained from each of three human donors, Donor 1, Donor 2, and Donor 3. 1 gram of each fecal sample was added to 10 mL phosphate buffered saline (PBS) to form three separate slurries of 10% (w/v) fecal sample. A total of 36 experiments was setup on a 48-well plate (referred to herein as “microplate experiments”). For each slurry obtained from Donor 1 Donor 2, or Donor 3, 40 μL of the respective slurry was added to each of twelve wells of the plate. For each of these 12 wells, 360 μL of water (control), water comprising fructose, or water comprising fructose oligosaccharide (FOS) were added. After addition of water, three of the twelve wells comprised slurry+water; three of the twelve wells comprised slurry+2% w/v fructose+water; three of the twelve wells comprised slurry+0.5% w/v FOS+water; and three of the twelve wells comprised slurry+2% w/v FOS+water. In Table 1, “Donor 1” represents slurry from Donor 1, “Donor 2” represents slurry from Donor 2, and “Donor 3” represents slurry from Donor 3. The microplate was then incubated for 24 hours in an anaerobic chamber under 80% nitrogen, 10% carbon dioxide, and 10% hydrogen (H2). A total of 8 experiments were prepared each in a vial (referred to herein as “tube experiments”). 200 μL of slurry from Donor 1 was added to each of the 8 vials. In 4 of the vials, 1.8 mL of water comprising FOS was added for a final concentration of 2% w/v FOS. For the other four vials, 1.8 mL of water (control) was added. Two of the vials comprising FOS and the two vials comprising water are incubated for 24 hours in an anaerobic chamber (comprising 80% nitrogen, 10% carbon dioxide, and 10% hydrogen (H2)) at 37° C. The other four vials are incubated for 16 hours. DNA was extracted from each sample (well or tube) and quantified using a PicoGreen method. DNA is also extracted from an aliquot of each slurry obtained from Donor 1, Donor 2, and Donor 3. DNA comprising the variable region (V4) region of the 16S rRNA gene was amplified and sequenced using the MiSeq platform from Ilumina. Principle component analyses (PCoA) were performed to identify Unifrac distances (degree of similarity/dissimilarity) of the different treatment groups. Relative taxa representation for the various treatment groups was determined at the phylum, class, order, family, genus and species levels using operational taxonomic units (OTUs) by comparing results to the GreenGenes database.

[2] = tested on: microbiota of human donor fecal samples; experiment: MESA tube experiments (16S rRNA V4 sequencing, PCoA/Unifrac); assay type: cell-based; settings: 2% FOS
Method: A fecal sample was obtained from each of three human donors, Donor 1, Donor 2, and Donor 3. 1 gram of each fecal sample was added to 10 mL phosphate buffered saline (PBS) to form three separate slurries of 10% (w/v) fecal sample. A total of 36 experiments was setup on a 48-well plate (referred to herein as “microplate experiments”). For each slurry obtained from Donor 1 Donor 2, or Donor 3, 40 μL of the respective slurry was added to each of twelve wells of the plate. For each of these 12 wells, 360 μL of water (control), water comprising fructose, or water comprising fructose oligosaccharide (FOS) were added. After addition of water, three of the twelve wells comprised slurry+water; three of the twelve wells comprised slurry+2% w/v fructose+water; three of the twelve wells comprised slurry+0.5% w/v FOS+water; and three of the twelve wells comprised slurry+2% w/v FOS+water. In Table 1, “Donor 1” represents slurry from Donor 1, “Donor 2” represents slurry from Donor 2, and “Donor 3” represents slurry from Donor 3. […] DNA was extracted from each sample (well or tube) and quantified using a PicoGreen method. […] Relative taxa representation for the various treatment groups was determined at the phylum, class, order, family, genus and species levels using operational taxonomic units (OTUs) by comparing results to the GreenGenes database.

[3] = Donor 1, 2% w/v agent, n=3, FIG. 2
[4] = Donor 2, 2% w/v agent, n=3, FIG. 3
[5] = Donor 3, 2% w/v agent, n=3, FIG. 4

Compound	shift in microbiota profile (PCoA, Unifrac distances) [1, 3]	shift in microbiota profile (PCoA, Unifrac distances) [1, 4]	shift in microbiota profile (PCoA, Unifrac distances) [1, 5]	shifts in microbial communities between the two assay formats ([2]; 24 hour incubation, tube (n=2) vs microplate (n=3), FIG. 6)	shifts in microbial communities between the two incubation times ([2]; Donor 1, 16 hour vs 24 hour incubation, tube, n=2, FIG. 5)	shift in microbiota profile (PCoA, Unifrac distances) ([1]; Donor 1, 0.5% w/v agent, n=3, FIG. 2)	shift in microbiota profile (PCoA, Unifrac distances) ([1]; Donor 2, 0.5% w/v agent, n=3, FIG. 3)	shift in microbiota profile (PCoA, Unifrac distances) ([1]; Donor 3, 0.5% w/v agent, n=3, FIG. 4)
O=C(CO)[C@@H](O)[C@H](O)[C@H](O)CO [fructose]	shift microbiota differently from controls	shift microbiota differently from controls	shift microbiota differently from controls	–	–	–	–	–
fructose oligosaccharide [FOS]	shift microbiota differently from controls	shift microbiota differently from controls	shift microbiota differently from controls	similar	similar	shift microbiota differently from controls	shift microbiota differently from controls	shift microbiota differently from controls
